For one assay, the system named is 3T3-L1 cells. The experiment in a line: Lipogenesis inhibition in 3T3-L1 cells (Sudan III dyeing). It counts as cell-based, mouse. The conditions noted are these: 50 µM. How it is done:
The mouse fibroblast cell line, 3T3-L1 cells are immobilized in a 6-well culture plate filled with Dulbecco's modified eagle's medium (DMEM) (GIBCO BRL, Life Technologies, Inc.) containing 10% fetal bovine serum (FBS) at an amount of 1×10^5 cells/well. After 2 days, the used medium is replaced with a new DMEM (containing 10% FBS) medium to culture the cells for 2 days. […] After 5 days, the used DMEM medium is replaced with a normal medium (DMEM containing 10% FBS). The cells are cultured and observed until they are morphologically changed into fat cells. In order to evaluate the ginsenoside F2 in regards to the inhibitory effect on the fat accumulation in the fat cells, the completely differentiated 3T3-L1 fat cells are dyed with Sudan III ([…], Sigma-Aldrich). The fat cells are immobilized with 4% para-formaldehyde (pH 7.2) at the room temperature in a phosphate buffer solution. The fat cells are washed with phosphate-buffered saline (PBS) and then dyed with Sudan III. The picture of the fat cells is taken for visual evaluation. The control uses a medium using neither a test substance nor a comparative substance. The comparative control group is treated with 50 μM caffeine. The fat accumulation inhibitory ability is evaluated based on the degree of dying. The degree of dying is graded +++, ++, +, and - in the decreasing order.

For assay [1], the system named is prostaglandin generation in macrophagocytes collected from the abdominal cavity of a mouse. As to the kind of experiment: Prostaglandin generation inhibition in LPS-treated macrophagocytes (ELISA). It counts as cell-based. Particulars: 100 μl of ginsenoside F2. How it is done: The inflammatory effect is evaluated in terms of the inhibitory effect on prostaglandin generation. Ginsenoside F2 is used to measure the effect on macrophagocytes. Firstly, macrophagocytes collected from the abdominal cavity of a mouse are treated with aspirin to have the final concentration of 500 µM, causing irreversible inhibition on the activity of cyclooxygenase (COX) remaining in the macrophagocytes. Then, 100 μl of the suspension is put in each well of a 96-well culture plate and cultured in an incubator under the conditions of 5% CO2 and 37° C. for 2 hours to immobilize the macrophagocytes on the surface of the container. Subsequently, the immobilized macrophagocytes are washed with PBS three times and used in the inflammatory improvement test. […] Then, the macrophagocytes are treated with 100 μl of ginsenoside F2, and the isolated prostaglandin is quantitatively analyzed by way of ELISA (Enzyme-Linked ImmunoSorbent Assey).
In this regard, the prostaglandin generation inhibitory activity of the ginsenoside F2 is determined by the reduced amount of prostaglandin generated in the LPS-treated group in comparison with the case of the control in terms of the percentage amount of the prostaglandin decreased by treatment with LPS and the sample, while the difference in the amount of the generated prostaglandin between the LPS-treated group and the control group is set to 100%.

This is an account of results in patent US20150352134A1, “COMPOSITION FOR TOPICAL SKIN APPLICATION CONTAINING GINSENOSIDE F2 DERIVED FROM HYDROPONIC GINSENG” (AMOREPACIFIC CORPORATION, priority 2012, published 2015).

As to `Cn1c(=O)c2c(ncn2C)n(C)c1=O` [Comparative group, caffeine, reference compound], the “Inhibition rate (%) (degree of dying with Sudan III)” value in the assay on 3T3-L1 cells is “+”.

Consider `CC(=O)Oc1ccccc1C(=O)O` [Control (aspirin-treated group), aspirin, reference compound], for which the “prostaglandin generation (Blank = 100%)” value in assay [1] is on record as 25.0%.
